Measurements reported in ChEMBL document CHEMBL4765227, “Hit to lead optimization of a series of N-[4-(1,3-benzothiazol-2-yl)phenyl]acetamides as monoacylglycerol lipase inhibitors with potential anticancer activity” (Eur J Med Chem, 2016).

Key:
Assay type in all cases: functional
Settings in all cases: read-out: GI
M14 = test: Growth inhibition of human M14 cells at 10 uM incubated for 48 hrs by sulforhodamine B assay relative to control
UACC-62 = test: Growth inhibition of human UACC-62 cells at 10 uM incubated for 48 hrs by sulforhodamine B assay relative to control
PC-3 = test: Growth inhibition of human PC-3 cells at 10 uM incubated for 48 hrs by sulforhodamine B assay relative to control
SK-MEL-5 = test: Growth inhibition of human SK-MEL-5 cells at 10 uM incubated for 48 hrs by sulforhodamine B assay relative to control
K562 = test: Growth inhibition of human K562 cells at 10 uM incubated for 48 hrs by sulforhodamine B assay relative to control
COLO 205 = test: Growth inhibition of human COLO 205 cells at 10 uM incubated for 48 hrs by sulforhodamine B assay relative to control
MDA-MB-231 = test: Growth inhibition of human MDA-MB-231 cells at 10 uM incubated for 48 hrs by sulforhodamine B assay relative to control
786-0 = test: Growth inhibition of human 786-0 cells at 10 uM incubated for 48 hrs by sulforhodamine B assay relative to control
RXF 393 = test: Growth inhibition of human RXF 393 cells at 10 uM incubated for 48 hrs by sulforhodamine B assay relative to control
NCI/ADR-RES = test: Growth inhibition of human NCI/ADR-RES cells at 10 uM incubated for 48 hrs by sulforhodamine B assay relative to control
ACHN = test: Growth inhibition of human ACHN cells at 10 uM incubated for 48 hrs by sulforhodamine B assay relative to control
HCT-116 = test: Growth inhibition of human HCT-116 cells at 10 uM incubated for 48 hrs by sulforhodamine B assay relative to control
OVCAR-3 = test: Growth inhibition of human OVCAR-3 cells at 10 uM incubated for 48 hrs by sulforhodamine B assay relative to control
IGROV-1 = test: Growth inhibition of human IGROV-1 cells at 10 uM incubated for 48 hrs by sulforhodamine B assay relative to control
A549 = test: Growth inhibition of human A549/ATCC cells at 10 uM incubated for 48 hrs by sulforhodamine B assay relative to control
NCI-H322M = test: Growth inhibition of human NCI-H322M cells at 10 uM incubated for 48 hrs by sulforhodamine B assay relative to control
HT-29 = test: Growth inhibition of human HT-29 cells at 10 uM incubated for 48 hrs by sulforhodamine B assay relative to control
SK-OV-3 = test: Growth inhibition of human SK-OV-3 cells at 10 uM incubated for 48 hrs by sulforhodamine B assay relative to control
LOX IMVI = test: Growth inhibition of human LOX IMVI cells at 10 uM incubated for 48 hrs by sulforhodamine B assay relative to control
NCI-H226 = test: Growth inhibition of human NCI-H226 cells at 10 uM incubated for 48 hrs by sulforhodamine B assay relative to control
SN12C = test: Growth inhibition of human SN12C cells at 10 uM incubated for 48 hrs by sulforhodamine B assay relative to control
BT-549 = test: Growth inhibition of human BT-549 cells at 10 uM incubated for 48 hrs by sulforhodamine B assay relative to control
U-251 = test: Growth inhibition of human U-251 cells at 10 uM incubated for 48 hrs by sulforhodamine B assay relative to control
OVCAR-8 = test: Growth inhibition of human OVCAR-8 cells at 10 uM incubated for 48 hrs by sulforhodamine B assay relative to control
OVCAR-4 = test: Growth inhibition of human OVCAR-4 cells at 10 uM incubated for 48 hrs by sulforhodamine B assay relative to control
TK-10 = test: Growth inhibition of human TK-10 cells at 10 uM incubated for 48 hrs by sulforhodamine B assay relative to control
CAKI-1 = test: Growth inhibition of human CAKI-1 cells at 10 uM incubated for 48 hrs by sulforhodamine B assay relative to control
MOLT-4 = test: Growth inhibition of human MOLT-4 cells at 10 uM incubated for 48 hrs by sulforhodamine B assay relative to control
SR = test: Growth inhibition of human SR cells at 10 uM incubated for 48 hrs by sulforhodamine B assay relative to control
HL-60(TB) = test: Growth inhibition of human HL-60(TB) cells at 10 uM incubated for 48 hrs by sulforhodamine B assay relative to control
MDA-MB-435 = test: Growth inhibition of human MDA-MB-435 cells at 10 uM incubated for 48 hrs by sulforhodamine B assay relative to control
UO-31 = test: Growth inhibition of human UO-31 cells at 10 uM incubated for 48 hrs by sulforhodamine B assay relative to control
DU-145 = test: Growth inhibition of human DU-145 cells at 10 uM incubated for 48 hrs by sulforhodamine B assay relative to control
SF-539 = test: Growth inhibition of human SF-539 cells at 10 uM incubated for 48 hrs by sulforhodamine B assay relative to control
CCRF-CEM = test: Growth inhibition of human CCRF-CEM cells at 10 uM incubated for 48 hrs by sulforhodamine B assay relative to control
SF-295 = test: Growth inhibition of human SF-295 cells at 10 uM incubated for 48 hrs by sulforhodamine B assay relative to control
NCI-H522 = test: Growth inhibition of human NCI-H522 cells at 10 uM incubated for 48 hrs by sulforhodamine B assay relative to control
HOP-62 = test: Growth inhibition of human HOP-62 cells at 10 uM incubated for 48 hrs by sulforhodamine B assay relative to control
MCF7 = test: Growth inhibition of human MCF7 cells at 10 uM incubated for 48 hrs by sulforhodamine B assay relative to control
MDA-MB-468 = test: Growth inhibition of human MDA-MB-468 cells at 10 uM incubated for 48 hrs by sulforhodamine B assay relative to control
Hs-578T = test: Growth inhibition of human Hs-578T cells at 10 uM incubated for 48 hrs by sulforhodamine B assay relative to control
NCI-H460 = test: Growth inhibition of human NCI-H460 cells at 10 uM incubated for 48 hrs by sulforhodamine B assay relative to control
KM12 = test: Growth inhibition of human KM12 cells at 10 uM incubated for 48 hrs by sulforhodamine B assay relative to control
NCI-H23 = test: Growth inhibition of human NCI-H23 cells at 10 uM incubated for 48 hrs by sulforhodamine B assay relative to control

## Cc1cc(C)n(CC(=O)Nc2ccc(-c3nc4ccccc4s3)cc2)n1
M14
  inhibition of growth at 10 µM: -11.3%
UACC-62
  inhibition of growth at 10 µM: 4.67%
PC-3
  inhibition of growth at 10 µM: 13.2%
SK-MEL-5
  inhibition of growth at 10 µM: 3.6%
K562
  inhibition of growth at 10 µM: -0.21%
COLO 205
  inhibition of growth at 10 µM: -12.4%
MDA-MB-231
  inhibition of growth at 10 µM: -7.87%
786-0
  inhibition of growth at 10 µM: -5.8%
RXF 393
  inhibition of growth at 10 µM: -29%
NCI/ADR-RES
  inhibition of growth at 10 µM: -2.56%
ACHN
  inhibition of growth at 10 µM: -14.4%
HCT-116
  inhibition of growth at 10 µM: -7.45%
OVCAR-3
  inhibition of growth at 10 µM: -1.21%
IGROV-1
  inhibition of growth at 10 µM: 2.57%
A549
  inhibition of growth at 10 µM: 5.29%
NCI-H322M
  inhibition of growth at 10 µM: 0.12%
HT-29
  inhibition of growth at 10 µM: -8.3%
SK-OV-3
  inhibition of growth at 10 µM: -14%
LOX IMVI
  inhibition of growth at 10 µM: 2.33%
NCI-H226
  inhibition of growth at 10 µM: -0.25%
SN12C
  inhibition of growth at 10 µM: -2.13%
BT-549
  inhibition of growth at 10 µM: -15.3%
U-251
  inhibition of growth at 10 µM: 10.3%
OVCAR-8
  inhibition of growth at 10 µM: 0.31%
OVCAR-4
  inhibition of growth at 10 µM: 2.19%
TK-10
  inhibition of growth at 10 µM: -6.36%
CAKI-1
  inhibition of growth at 10 µM: -1.54%
MOLT-4
  inhibition of growth at 10 µM: 16%
SR
  inhibition of growth at 10 µM: 0.6%
HL-60(TB)
  inhibition of growth at 10 µM: -2.97%
MDA-MB-435
  inhibition of growth at 10 µM: -7.5%
UO-31
  inhibition of growth at 10 µM: 16.2%
DU-145
  inhibition of growth at 10 µM: -2.89%
SF-539
  inhibition of growth at 10 µM: 1.4%
CCRF-CEM
  inhibition of growth at 10 µM: 1.49%
SF-295
  inhibition of growth at 10 µM: -3.17%
NCI-H522
  inhibition of growth at 10 µM: -2.77%
HOP-62
  inhibition of growth at 10 µM: -5.06%
MCF7
  inhibition of growth at 10 µM: 73.4%
MDA-MB-468
  inhibition of growth at 10 µM: 103%
Hs-578T
  inhibition of growth at 10 µM: -13.4%
NCI-H460
  inhibition of growth at 10 µM: -2.37%
KM12
  inhibition of growth at 10 µM: -0.27%
NCI-H23
  inhibition of growth at 10 µM: 6.19%
